The source of these data is article PMC3865801 (Journal of Medicinal Chemistry, 2013).

Where two headings read alike, the source gives them in different places.

The target of data set [1] is T1, purified recombinant perforin (Mus musculus, UniProt P10820).
T1 sequence (P10820 21-554): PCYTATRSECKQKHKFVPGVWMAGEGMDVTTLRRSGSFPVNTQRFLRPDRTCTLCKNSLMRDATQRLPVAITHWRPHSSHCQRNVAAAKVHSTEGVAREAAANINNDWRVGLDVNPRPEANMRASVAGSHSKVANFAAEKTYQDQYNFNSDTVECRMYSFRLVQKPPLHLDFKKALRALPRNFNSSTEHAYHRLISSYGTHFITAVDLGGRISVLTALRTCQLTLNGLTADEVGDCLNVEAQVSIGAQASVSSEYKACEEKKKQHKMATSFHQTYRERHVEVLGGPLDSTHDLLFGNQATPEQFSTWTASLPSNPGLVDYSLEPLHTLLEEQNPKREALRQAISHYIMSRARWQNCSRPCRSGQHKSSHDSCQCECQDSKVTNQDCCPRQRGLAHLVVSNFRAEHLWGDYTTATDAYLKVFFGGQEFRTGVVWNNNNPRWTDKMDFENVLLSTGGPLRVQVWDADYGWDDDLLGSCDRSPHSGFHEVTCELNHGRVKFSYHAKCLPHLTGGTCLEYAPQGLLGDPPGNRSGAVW
The experiment in a line: cell-based. Type of data set: cell-based. Particulars: lysis of Jurkat cells by purified recombinant perforin, 51Cr release, 0.1% BSA; average of at least three determinations; read-out: inhibition of Jurkat cell lysis, IC50.
Procedure: The ability of the compounds to inhibit the lysis of nucleated (Jurkat T lymphoma) cells in the presence of 0.1% BSA was measured by release of ^51Cr label. Jurkat target cells were labeled by incubation in medium with 100 μCi ^51Cr for 1 h. The cells were then washed three times to remove unincorporated isotope and resuspended at 1 × 10^5 cells per milliliter in RPMI buffer supplemented with 0.1% BSA. […] Each data point was performed in triplicate, and an IC50 was calculated from the range of concentrations described above.

Data set [2] deals with T2, perforin produced by an intact NK cell line (KHYG-1) (Homo sapiens, UniProt P14222).
T2 construct: the perforin is delivered by a functional NK cell; endogenous in cells; host or cells: KHYG-1 NK cells (K562 target cells)
T2 sequence (P14222 22-555): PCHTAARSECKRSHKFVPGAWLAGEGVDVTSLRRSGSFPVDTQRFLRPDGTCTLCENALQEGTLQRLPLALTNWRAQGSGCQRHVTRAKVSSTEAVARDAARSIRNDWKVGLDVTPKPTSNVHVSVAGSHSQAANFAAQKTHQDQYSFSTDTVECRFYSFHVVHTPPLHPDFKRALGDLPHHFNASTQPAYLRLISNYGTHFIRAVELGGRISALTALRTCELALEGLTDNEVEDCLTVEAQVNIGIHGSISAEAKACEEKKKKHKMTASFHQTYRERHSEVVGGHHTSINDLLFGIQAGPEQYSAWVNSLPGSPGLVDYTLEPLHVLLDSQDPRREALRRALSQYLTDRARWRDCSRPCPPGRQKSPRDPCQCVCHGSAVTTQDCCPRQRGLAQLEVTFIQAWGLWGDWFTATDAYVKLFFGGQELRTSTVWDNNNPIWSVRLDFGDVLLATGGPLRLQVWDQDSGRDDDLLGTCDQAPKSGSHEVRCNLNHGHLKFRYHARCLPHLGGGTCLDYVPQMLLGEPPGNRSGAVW
The experiment in a line: KHYG-1 cytotoxicity assay: perforin-induced lysis of K562 target cells co-incubated with KHYG-1 NK cells. The class given is cell-based. Particulars: 20 μM, K562 targets, ± SEM. Here is the method:
KHYG-1 cells were washed and resuspended in RPMI + 0.1% BSA at 4 × 10^5 cells/mL, and an amount of 50 μL of KHYG-1 cells was dispensed to each well of a 96-well V-bottom plate. RPMI (50 μL) + 0.1% BSA or 10% (final concentration) of serum was added to each well. Then test compounds were added to KHYG-1 cells at various concentrations up to 20 μM and incubated at room temperature for 20 min. 1 × 10^6 K562 target cells were labeled with 75 μCi ^51Cr in 200 μL of RPMI for 90 min at 37 °C. Cells were washed as described above and resuspended in 5 mL of RPMI + 0.1% BSA. […] The percentage of specific cytotoxicity was calculated using the following formula: [drawing 4] and expressed as the mean of triplicate assays ± standard error of the mean.

Data set [3] is described as follows: Toxicity to KHYG-1 NK cells (Trypan blue exclusion). Type of data set: cell-based, human. The following applies: human, KHYG-1 NK cells; 20 μM, 4 h exposure, viability after 24 h, Trypan blue, ± SEM. How it is done:
The toxicity assay was carried out in exactly the same manner as the killing assay above, but instead of adding the labeled K562 target cells, 100 μL of RPMI 0.1% BSA was added. Cells were incubated for 4 h at 37 °C and then washed ×3 in RPMI + 0.1% BSA. […] Trypan blue was added to each well. Viable (clear) cells and total (clear + blue) cells were counted, and the percentage of viable cells was calculated compared to DMSO treated cell control (% viability).

Data set [4] can be described thus: Aqueous solubility of parent compound and sodium salt. The following applies: aqueous medium (not further specified).
Where [5] appears, read: 10% mouse serum, read-out: KHYG-1 inhibition (% at 20 μM), 10% serum.
Setting [6] is: no serum, vs untreated control, read-out: KHYG-1 inhibition (% at 20 μM), no serum.

Turning to `O=C1NC(=S)N/C1=C/c1ccc(-c2ccc3c(c2)COC3=O)s1` [compound 4], in data set [1], the IC50 – broadly, the midpoint of a concentration-inhibition curve – was 0.78 µM. The values for the inhibition at 20 µM in data set [2] (setting [5]) and in data set [2] (setting [6]) were 38.9 ± 3.5% and 53 ± 2.6%, respectively. In addition, the viability (usually a per cent measure of how many cells are alive, often set against a control) at 4 h, 20 µM in data set [3] was determined as 88 ± 3%. For the same compound, in data set [4], the solubility (usually the concentration that dissolves in the medium under given conditions) worked out at 23 µg/mL.
On to `O=C1NC(=S)N/C1=C/c1ccc(-c2ccc3c(c2)CNC3=O)s1` [compound 118], for which the IC50 in data set [1] was 2.55 µM. For the same compound, the figures for the inhibition at 20 µM in data set [2] (setting [5]) and in data set [2] (setting [6]) were 55 ± 6.5% and 56 ± 7.2%, respectively. Further, the viability at 4 h, 20 µM in data set [3] was 95 ± 3.5%. The solubility in data set [4] came out at 0.54 µg/mL.
